Reference: patent EP0025842B1, “Peptides, process for their preparation, their pharmaceutical compositions and their intermediates” (FUJISAWA PHARMACEUTICAL CO., LTD., priority 1979, dated 1987)

Columns and labels:
mice = assay: Acute toxicity in mice; type: in vivo; conditions: 1 g/kg (i.v.)
Text: 7. Acute toxicity in mice of FR-900156 1 g/kg (i.v.): no toxicity

mouse L cell = assay: Cell toxicity (mouse L cell); type: cell-based; conditions: 500 µg/ml

## C[C@H](NC(=O)[C@@H](C)O)C(=O)N[C@H](CCC(=O)N[C@@H](CCC[C@@H](N)C(=O)O)C(=O)NCC(=O)O)C(=O)O [FR-900156, D-Lactyl-L-alanyl-γ-D-glutamyl-(L)-mesodiaminopimelyl(L)-glycine]
mice
  Acute toxicity in mice: no toxicity
Mouse L cell
  Cell toxicity (mouse L cell): no toxic effect
